Source: EP0908457B1, “3-(1,2-benzisothiazol- and isoxazol-5-Y1)-2,4(1H,3H)-pyrimidinedione or thione and 3-(1,2-benzisothiazol- and isoxazol-5-y1)-4(3H)-pyrimidinone or thione herbicidal agents” (BASF AKTIENGESELLSCHAFT, priority 1997, dated 1999)

Tests used:
[1] = test system: Echinochloa oryzoides (Ard.) Fritsch.; experiment: Preemergence weed control under flooded paddy conditions, ECHORC (Watergrass (Calif.)); type: in vivo; conditions: preemergence, flooded paddy, rated three to four weeks after treatment; also: meaning of each grade not given here
[2] = test system: Cyperus iria; experiment: Preemergence weed control under flooded paddy conditions, CYPIR (Rice Flatsedge); type: in vivo; conditions: preemergence, flooded paddy, rated three to four weeks after treatment; also: meaning of each grade not given here
[3] = test system: Cyperus serotinus, Rottb.; experiment: Preemergence weed control under flooded paddy conditions, CYPSE (Flatsedge); type: in vivo; conditions: preemergence, rated three to four weeks after treatment; also: meaning of each grade not given here
[4] = test system: Monochoria vaginalis, Presl.; experiment: Preemergence weed control under flooded paddy conditions, MOOVA (Monochoria); type: in vivo; conditions: preemergence, flooded paddy, rated three to four weeks after treatment; also: meaning of each grade not given here
[5] = test system: Sagittaria pygmaea, L.; experiment: Preemergence weed control under flooded paddy conditions, SAGPY (Arrowhead (Pygmaea)); type: in vivo; conditions: preemergence, flooded paddy, rated three to four weeks after treatment; also: meaning of each grade not given here
[6] = test system: Echinochloa oryzoides (Ard.) Fritsch.; experiment: Postemergence weed control under flooded paddy conditions, ECHORC (Watergrass (Calif.)); type: in vivo; conditions: rated three to four weeks after treatment
[7] = test system: Cyperus iria; experiment: Postemergence weed control under flooded paddy conditions, CYPIR (Rice Flatsedge); type: in vivo; conditions: rated three to four weeks after treatment
[8] = test system: Cyperus serotinus, Rottb.; experiment: Postemergence weed control under flooded paddy conditions, CYPSE (Flatsedge); type: in vivo; conditions: rated three to four weeks after treatment
[9] = test system: Monochoria vaginalis, Presl.; experiment: Postemergence weed control under flooded paddy conditions, MOOVA (Monochoria); type: in vivo; conditions: rated three to four weeks after treatment
[10] = test system: Sagittaria pygmaea, L.; experiment: Postemergence weed control under flooded paddy conditions, SAGPY (Arrowhead (Pygmaea)); type: in vivo; conditions: rated three to four weeks after treatment
[11] = test system: Oryza sativa, (L.) Tebonnet; experiment: Rice tolerance to post-transplant applications under flooded paddy conditions (Example 187), ORYSAT (Rice, Tebonnet); conditions: rated three to four weeks after treatment
[12] = test system: Oryza sativa, (L.) Tebonnet; experiment: Rice tolerance to post-transplant applications under flooded paddy conditions (Example 188), ORYSAT (Rice, Tebonnet); conditions: rated three to four weeks after treatment

Compound: COC(=O)C(C)Oc1cc(C)c(C)cc1-c1nsc2ccc(-n3c(=O)cc(C(F)(F)F)n(C)c3=O)cc12 (stereo not drawn) [Example 13, Methyl 2-{{6-{5-[3,6-dihydro-3-methyl-4-(trifluoromethyl)-2,6-dioxo-1(2H)-pyrimidinyl]-1,2-benzisothiazol-3-yl}-3,4-xylyl}oxy}propionate]
- herbicidal effect rating, ECHORC ([1]; 0.0313 kg/ha): 9.0
- herbicidal effect rating, ECHORC ([1]; 0.0625 kg/ha): 9.0
- herbicidal effect rating, ECHORC ([1]; 0.1250 kg/ha): 9.0
- herbicidal effect rating, ECHORC ([1]; 0.2500 kg/ha): 9.0
- herbicidal effect rating, ECHORC ([1]; 0.5000 kg/ha): 9.0
- herbicidal effect rating, CYPIR ([2]; 0.0313 kg/ha): 9.0
- herbicidal effect rating, CYPIR ([2]; 0.0625 kg/ha): 9.0
- herbicidal effect rating, CYPIR ([2]; 0.1250 kg/ha): 9.0
- herbicidal effect rating, CYPIR ([2]; 0.2500 kg/ha): 9.0
- herbicidal effect rating, CYPIR ([2]; 0.5000 kg/ha): 9.0
- herbicidal effect rating, CYPSE ([3]; 0.0313 kg/ha): 0.0
- herbicidal effect rating, CYPSE ([3]; 0.0625 kg/ha): 2.0
- herbicidal effect rating, CYPSE ([3]; 0.1250 kg/ha): 7.0
- herbicidal effect rating, CYPSE ([3]; 0.2500 kg/ha): 7.0
- herbicidal effect rating, CYPSE ([3]; 0.5000 kg/ha): 7.0
- herbicidal effect rating, MOOVA ([4]; 0.0313 kg/ha): 9.0
- herbicidal effect rating, MOOVA ([4]; 0.0625 kg/ha): 9.0
- herbicidal effect rating, MOOVA ([4]; 0.1250 kg/ha): 9.0
- herbicidal effect rating, MOOVA ([4]; 0.2500 kg/ha): 9.0
- herbicidal effect rating, MOOVA ([4]; 0.5000 kg/ha): 9.0
- herbicidal effect rating, SAGPY ([5]; 0.0313 kg/ha): 0.0
- herbicidal effect rating, SAGPY ([5]; 0.0625 kg/ha): 2.0
- herbicidal effect rating, SAGPY ([5]; 0.1250 kg/ha): 6.0
- herbicidal effect rating, SAGPY ([5]; 0.2500 kg/ha): 8.0
- herbicidal effect rating, SAGPY ([5]; 0.5000 kg/ha): 9.0
- herbicidal effect rating, ECHORC ([6]; Rate 0.0313 kg/ha): 0.0
- herbicidal effect rating, ECHORC ([6]; Rate 0.0625 kg/ha): 2.0
- herbicidal effect rating, ECHORC ([6]; Rate 0.1250 kg/ha): 6.0
- herbicidal effect rating, ECHORC ([6]; Rate 0.2500 kg/ha): 8.0
- herbicidal effect rating, ECHORC ([6]; Rate 0.5000 kg/ha): 9.0
- herbicidal effect rating, CYPIR ([7]; Rate 0.0313 kg/ha): 9.0
- herbicidal effect rating, CYPIR ([7]; Rate 0.0625 kg/ha): 9.0
- herbicidal effect rating, CYPIR ([7]; Rate 0.1250 kg/ha): 9.0
- herbicidal effect rating, CYPIR ([7]; Rate 0.2500 kg/ha): 9.0
- herbicidal effect rating, CYPIR ([7]; Rate 0.5000 kg/ha): 9.0
- herbicidal effect rating, CYPSE ([8]; Rate 0.0313 kg/ha): 0.0
- herbicidal effect rating, CYPSE ([8]; Rate 0.0625 kg/ha): 0.0
- herbicidal effect rating, CYPSE ([8]; Rate 0.1250 kg/ha): 2.0
- herbicidal effect rating, CYPSE ([8]; Rate 0.2500 kg/ha): 4.0
- herbicidal effect rating, CYPSE ([8]; Rate 0.5000 kg/ha): 2.0
- herbicidal effect rating, MOOVA ([9]; Rate 0.0313 kg/ha): 9.0
- herbicidal effect rating, MOOVA ([9]; Rate 0.0625 kg/ha): 9.0
- herbicidal effect rating, MOOVA ([9]; Rate 0.1250 kg/ha): 9.0
- herbicidal effect rating, MOOVA ([9]; Rate 0.2500 kg/ha): 9.0
- herbicidal effect rating, MOOVA ([9]; Rate 0.5000 kg/ha): 9.0
- herbicidal effect rating, SAGPY ([10]; Rate 0.0313 kg/ha): 0.0
- herbicidal effect rating, SAGPY ([10]; Rate 0.0625 kg/ha): 0.0
- herbicidal effect rating, SAGPY ([10]; Rate 0.1250 kg/ha): 2.0
- herbicidal effect rating, SAGPY ([10]; Rate 0.2500 kg/ha): 2.0
- herbicidal effect rating, SAGPY ([10]; Rate 0.5000 kg/ha): 9.0
- herbicidal effect rating, ORYSAT (rice tolerance) ([11]; 0.0313 kg/ha): 4.0
- herbicidal effect rating, ORYSAT (rice tolerance) ([11]; 0.0625 kg/ha): 6.0
- herbicidal effect rating, ORYSAT (rice tolerance) ([11]; 0.1250 kg/ha): 7.0
- herbicidal effect rating, ORYSAT (rice tolerance) ([11]; 0.2500 kg/ha): 7.0
- herbicidal effect rating, ORYSAT (rice tolerance) ([11]; 0.5000 kg/ha): 9.0
- herbicidal effect rating, ORYSAT (rice tolerance) ([12]; Rate 0.0313 kg/ha): 2.0
- herbicidal effect rating, ORYSAT (rice tolerance) ([12]; Rate 0.0625 kg/ha): 2.0
- herbicidal effect rating, ORYSAT (rice tolerance) ([12]; Rate 0.1250 kg/ha): 4.0
- herbicidal effect rating, ORYSAT (rice tolerance) ([12]; Rate 0.2500 kg/ha): 4.0
- herbicidal effect rating, ORYSAT (rice tolerance) ([12]; Rate 0.5000 kg/ha): 7.0
